Data on one compound can be found in patent US12510533B2, “Methods for treating multiple myeloma and the use of companion biomarkers for 4-(4-(4-(((2-(2,6-dioxopiperidin-3-yl)-1-oxoisoindolin-4-yl)oxy)methyl)benzyl)piperazin-1-yl)-3-fluorobenzonitrile” (Celgene Corporation, priority 2018, dated 2025).

In assay [1] the target is Ikaros (Homo sapiens, UniProt Q13422+Q96SW2). Briefly: Ikaros degradation in CD4+ T cells. It is filed as cell-based. Set-up: The effects of Compound 2 on the degradation of Ikaros in CD4+ and CD8+ T cells; endogenous in cells; host or cells: CD4+ and CD8+ T cells of healthy donors; CD34+ bone marrow cells of healthy donors; CD3+ T cells of multiple myeloma patients. The following applies: 24 hours, read-out: Ikaros degradation IC50. The method, then:
FIG. 22A-FIG. 22C illustrate that Compound 2 induces degradation of Ikaros in CD4+ T cells. […] Data shown are an average from two donors and are represented as MFI normalized to DMSO control.
The effects of Compound 2 on the degradation of Ikaros in CD4+ and CD8+ T cells over a 72 hour time course were investigated. The ability of Compound 2 to induce effector cytokine release correlated with degradation of Ikaros in CD4+ T cells, a known transcriptional repressor of IL-2 (FIG. 22A-FIG. 22C). […] The ability of Compound 2 to degrade Ikaros was also observed at the 48 and 72 hour time point in both CD4+(FIG. 22B and FIG. 22C) and CD8+ (data not shown) T cell populations. […] Thus, Ikaros and Aiolos can serve as biomarkers of T-cell activation.

The subject of assay [2] is sBCMA. The assay is described as follows: Phase 1 study, sBCMA in serum by ELISA. It is filed as in vivo, human. The following applies: one subject; with dexamethasone. Here is the method:
This is an open-label, multi-center, international, Phase 1 study to assess the safety, PK/PD and preliminary efficacy of Compound 2 in combination with dexamethasone in subjects with RRMM.
Serum samples were taken before and during Compound 2 treatment at specified time points. The expression of sBCMA was measured by an ELISA assay.
On the technique in general: An ELISA detects its analyte on a solid surface through an enzyme-linked reagent.

Assay [3] concerns tumor necrosis factor alpha (TNF-α). The assay is described as follows: TNF-α production by TCR-activated healthy PBMCs. It is filed as cell-based, human. The conditions noted are these: 24 hours. The method, then: FIG. 21A-FIG. 21C illustrate that Compound 2 is a potent inducer of effector cytokines. […] (FIG. 21A) IL-2, (FIG. 21B) IFN-γ, and (FIG. 21C) TNF-α. Data shown are an average from three or four donors and are represented as fold change over DMSO control; error bars represent standard error of the mean (SEM).
The immunomodulatory activity of Compound 2 on T cell receptor (TCR)-activated healthy PBMCs was assessed. […] This increased in cytokine secretion was evident as early as 24 hours after introduction of Compound 2 with the peak of the effector cytokine production induced by Compound 2 being 5.5-fold for IL-2, 4.5-fold for interferon gamma (IFN-γ), and 2-fold for tumor necrosis factor alpha (TNF-α) above the vehicle control (FIG. 21A-FIG. 21C, respectively).

Chain of Ikaros (Q13422 whole entry): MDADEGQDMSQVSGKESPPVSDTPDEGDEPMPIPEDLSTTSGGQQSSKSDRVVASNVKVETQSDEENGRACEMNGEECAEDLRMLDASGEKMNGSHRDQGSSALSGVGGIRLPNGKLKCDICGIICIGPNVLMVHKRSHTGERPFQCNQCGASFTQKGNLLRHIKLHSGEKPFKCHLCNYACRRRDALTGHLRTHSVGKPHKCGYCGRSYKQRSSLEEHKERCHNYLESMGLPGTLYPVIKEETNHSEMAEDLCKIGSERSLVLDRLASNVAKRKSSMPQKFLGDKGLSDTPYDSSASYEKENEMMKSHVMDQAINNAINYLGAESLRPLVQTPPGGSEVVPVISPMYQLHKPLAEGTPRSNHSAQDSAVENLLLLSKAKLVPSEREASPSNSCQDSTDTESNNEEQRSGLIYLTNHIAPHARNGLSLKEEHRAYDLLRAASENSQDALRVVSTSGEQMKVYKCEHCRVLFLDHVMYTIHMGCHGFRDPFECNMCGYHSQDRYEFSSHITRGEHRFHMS
Chain of Ikaros (Q16531 2-1140, further chain): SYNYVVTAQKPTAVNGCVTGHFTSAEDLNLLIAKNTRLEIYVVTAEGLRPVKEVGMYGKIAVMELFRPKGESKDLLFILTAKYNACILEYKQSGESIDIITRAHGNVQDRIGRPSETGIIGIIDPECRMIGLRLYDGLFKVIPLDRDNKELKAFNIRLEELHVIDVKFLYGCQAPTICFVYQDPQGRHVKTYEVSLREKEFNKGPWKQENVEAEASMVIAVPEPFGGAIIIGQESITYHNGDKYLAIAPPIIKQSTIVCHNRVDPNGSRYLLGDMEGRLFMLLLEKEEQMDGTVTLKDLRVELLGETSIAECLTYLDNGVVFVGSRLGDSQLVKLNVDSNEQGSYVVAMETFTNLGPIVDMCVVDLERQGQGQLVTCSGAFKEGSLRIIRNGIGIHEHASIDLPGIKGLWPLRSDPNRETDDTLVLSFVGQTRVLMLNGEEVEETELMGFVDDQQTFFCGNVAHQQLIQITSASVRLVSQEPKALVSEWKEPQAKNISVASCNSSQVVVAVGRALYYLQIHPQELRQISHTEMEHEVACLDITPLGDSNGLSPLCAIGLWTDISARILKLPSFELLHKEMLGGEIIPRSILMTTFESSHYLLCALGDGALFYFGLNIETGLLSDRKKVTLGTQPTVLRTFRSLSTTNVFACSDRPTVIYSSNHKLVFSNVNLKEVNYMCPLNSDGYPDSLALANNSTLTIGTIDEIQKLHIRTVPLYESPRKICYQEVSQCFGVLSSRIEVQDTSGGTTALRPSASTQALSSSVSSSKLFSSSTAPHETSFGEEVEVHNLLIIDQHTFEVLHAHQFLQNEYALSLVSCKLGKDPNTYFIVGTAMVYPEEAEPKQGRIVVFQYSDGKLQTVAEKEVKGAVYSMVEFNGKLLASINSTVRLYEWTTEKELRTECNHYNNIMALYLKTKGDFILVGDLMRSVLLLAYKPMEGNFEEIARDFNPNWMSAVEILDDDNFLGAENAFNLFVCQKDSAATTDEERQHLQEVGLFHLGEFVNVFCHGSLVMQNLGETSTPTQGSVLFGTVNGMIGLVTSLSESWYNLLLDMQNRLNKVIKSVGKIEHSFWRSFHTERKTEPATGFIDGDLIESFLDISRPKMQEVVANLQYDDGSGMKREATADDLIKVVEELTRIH
Chain of Ikaros (Q96SW2 whole entry): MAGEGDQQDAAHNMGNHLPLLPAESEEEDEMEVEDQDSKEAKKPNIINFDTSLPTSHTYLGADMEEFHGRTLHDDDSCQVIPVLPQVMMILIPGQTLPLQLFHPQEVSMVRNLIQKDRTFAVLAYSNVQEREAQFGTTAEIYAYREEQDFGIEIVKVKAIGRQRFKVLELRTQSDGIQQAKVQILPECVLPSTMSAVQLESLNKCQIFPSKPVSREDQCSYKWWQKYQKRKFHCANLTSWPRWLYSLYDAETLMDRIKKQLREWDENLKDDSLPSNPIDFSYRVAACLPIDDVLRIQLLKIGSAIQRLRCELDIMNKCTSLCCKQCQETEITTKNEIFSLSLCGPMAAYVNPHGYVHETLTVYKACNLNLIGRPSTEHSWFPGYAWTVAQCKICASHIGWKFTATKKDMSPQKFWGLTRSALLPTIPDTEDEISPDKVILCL

For the compound `N#Cc1ccc(N2CCN(Cc3ccc(COc4cccc5c4CN([C@H]4CCC(=O)NC4=O)C5=O)cc3)CC2)c(F)c1` [Compound 2, (S)-4-(4-(4-(((2-(2,6-dioxopiperidin-3-yl)-1-oxoisoindolin-4-yl)oxy)methyl)benzyl)piperazin-1-yl)-3-fluorobenzonitrile], in assay [1], the DC50 was found to be 0.3 nM. For the same compound, the “decrease in sBCMA from baseline” value in assay [2] is given as over 80%. Also, in assay [3], the “peak TNF-α production above the vehicle control” value was 2 fold.
